Data: patent publication US20130053323A1, “METHODS AND USE RELATED TO HUMANIN AND HUMANIN-LIKE PEPTIDES” (priority 2009, published 2013)
Entries after “also recorded” stand apart in the source; their conditions may differ.

How the values were obtained:
[1] = test system: IL-6; experiment: IL-6 ELISA in culture medium of LPS-treated ATDC5 chondrocytes; assay type: cell-based, mice; details: LPS 10 μg/ml 24 hrs; combined Dexa and HNG (10 nM)
Method: Mice chondrocyte cell line ATDC5 (1×10^6), was cultured in DMEM/Ham's F12 (Invitrogen) supplemented with 5% FCS, 10 μg/ml human transferrin and 3×10^−8 M (30 nM) sodium selenite until confluent (day 6), as previously reported (Owen, Miner et al. 2007). Thereafter, differentiation was induced by the addition of insulin (10 μg/ml; Sigma) and ascorbic acid (20 μg/ml) to the maintenance medium (differentiation medium). Incubation was at 37° C. in a humidified atmosphere of 95% air/5% CO2. The culture medium was changed every second day. On day 6, lipopolysacharide (LPS) 10 μg/ml […] Dexa (1 μM) and HNG (10 nM, S14G) were added in DMEM/Ham's F12 only and cells were incubated further 24 hrs. Next day, the cell culture medium was collected and analyzed for Intraleukin-6 (IL-6) cytokine levels by using commercially available ELISA kit (R&D Systems, Minneapolis, Minn.) according to instructions provided from manufacturer.
FIG. 2C. […] Therefore, ATDC5 chondrocytes (mice) were cultured and treated with lipopolysacharide (LPS, 10 μg/ml) for 24 hrs to induce inflammation.

[2] = test system: FVB mice; experiment: Dexa-induced growth retardation in FVB mice (tibia length, nose to anus length); assay type: in vivo; details: HNG 1 μg/mice/day i.p. prior to Dexa 20 μg/mice/day; for rescue from Dexa-induced growth retardation (nose to anus length): 4 weeks
Method: Four weeks old female mice FVB strain were obtained from Charles-River, Germany. The mice were kept in animal facility under a 12-h light, 12-h dark schedule with water ad libitum. After an adaptation period, mice were injected with Dexa dissolved in saline (20 μg/mice) subcutaneously in the neck every day for 1 week (short-term). Whereas, HNG (S14G) dissolved in saline (1 μg/mice) was injected intraperitoneally, 45 minutes prior to Dexa injection. The vehicle group received saline only. After one week of treatment/injections, animals were sacrificed and the back legs (femur and tibia) were collected. The skin and muscle from the tibia was removed and final length of tibia was measured by using electronic digital caliper as reported previously (Zaman, Menendez-Benito et al. 2007).
In another study, four weeks old female mice FVB strain (Charles-river, Germany) were injected with Dexa dissolved in saline (20 μg/mice) subcutaneously in the neck every day for four week (long-term). Whereas, HNG (S14G) dissolved in saline (1 μg/mice) was injected intraperitoneally, 45 minutes prior to Dexa injection. The vehicle group received saline only. The total body length (nose to anus) was measured (centimeters, cm) manually (blinded, the cadges were coded on the day of measurment), every week. After 4 weeks of treatment, animals were sacrificed by inhalation of CO2, tissue samples (both left and right leg) were collected for subsequent analysis.
HNG injections were given […] prior to Dexa injections. […] After this, we next asked whether HNG (S14G) has any protective effects on bone growth after long-term treatment with Dexa (FIG. 3A). To investigate this, we treated mice for 4 weeks (group 2) with Dexa (20 μg/mice/day) and HNG (1 μg/mice/day). […] In FIG. 3B, total growth of the animals, nose to anus length (cm, manually) was analyzed in vehicle, Dexa, HNG (S14G) and Dexa/HNG (S14G) treated animals after four weeks of injections. **p<0.01 by 1-way ANOVA analyses, n=9-10/animals/group).

[3] = test system: FVB mice; experiment: Bone mineral density by dual energy X-ray absorptiometry in FVB mice; assay type: in vivo; details: HNG 1 μg/mice/day for four weeks, vs vehicle
Method: Areal bone mineral density (BMD; BMC/cm^2) and BMC were measured by dual energy X-ray absorptiometry (DXA) using the Lunar PIXImus mouse densitometer (Wipro GE Healthcare, Madison, Wisc.). Ex vivo measurements were taken from FVB mice treated with Dexa and HNG for four weeks (for details see methods and materials). The measurements of left femur and tibia were performed on excised bones placed on a 1-cm-thick Plexiglas™ table. All bones compared were measured in the same scan (high-resolution scan with line spacing set at 0.01 cm). n=9-10/animals/group.
In the light of the above findings where it was observed rescuing effects of HNG (S14G) on bone growth both in vitro and in vivo, it was analyzed whether HNG (S14G) has the capacity to regulate BMD. […] Trabecular BMD in tibia (mg/cm^3) of four-week old FVB mice treated for 4 weeks was measured by using DEXA (see protocol in material and methods).

[4] = test system: neuroblastoma (SK-N-BE(2)) tumor xenografts; experiment: Doubling time of tumors in neuroblastoma xenografts; assay type: in vivo, human; details: combination bortezomib 0.8 mg/kg i.v. + HNG 1 μg/mouse/injection i.p.; p<0.05 vs vehicle
[5] = test system: neuroblastoma (SK-N-BE(2)) xenograft; experiment: Tumor volume in neuroblastoma xenograft in NMRI nude mice; assay type: in vivo, human; details: bortezomib + HNG i.p., until day 13
[6] = test system: growth plate cartilage; experiment: Growth plate histology, resting and proliferating chondrocyte zone (R+P); assay type: in vivo, mice; details: four weeks
Method: Four weeks old mice (female, FVB) were injected with Dexa dissolved in saline ([…]) subcutaneously in the neck every day for four week. Whereas, HNG (S14G) dissolved in saline (1 μg/mice) was injected intra-peritoneally, 45 minutes prior to the Dexa injection for four weeks, for details see materials and methods. The femur and tibia bones were dissected out and fixed in 4% formalin for 24 hrs, followed by decalcification in 10% EDTA and embedded in paraffin blocks. Five-micrometer-thick sections were prepared from these paraffin blocks. The sections were prepared from the tibial growth plate and stained with Van Gieson. Digital images of stained sections were collected using a Nikon Eclipse E800 microscope (Nikon Corp., Tokyo, Japan) equipped with an Olympus DP70 digital camera (Olympus Sverige AB, Solna, Sweden).
Since a positive effect of HNG (S14G) on bone growth was identified, different zones of chondrocytes were analyzed (resting, proliferative and hypertrophic) in growth plate cartilage, to identify visible changes in these zones. […] These micropgraphas also explain the longitudinal bone growth promoting effects by HNG (S14G) alone or in combination with Dexa.

S14G-HN (MAPRGFSCLLLLTGEIDLPVKRRA) [HNG (S14G)]
effect on the anti-inflammatory effect of Dexa (IL-6 levels) [1]: did not alter the anti-inflammatory effects of Dexa | rescue from Dexa-induced growth retardation (tibia length) ([2]; 1 week): protected mice from Dexa-induced growth retardation; also recorded: rescued mice from Dexa-induced growth retardation | rescue from Dexa-induced growth retardation (nose to anus length) [2]: completely rescued mice from Dexa-induced growth retardation | rescue from Dexa-induced growth retardation (nose to anus length) ([2]; listed as HNG (314G)): protected mice from Dexa-induced growth retardation | trabecular BMD in tibia [3]: trend towards increased BMD | tumor doubling time [4]: significant reduction in tumor doubling time | interference with anti-cancer effect of bortezomib (tumor volume) [5]: does not interfere with the anti-cancer effect | size of resting and proliferating chondrocyte zone (R+P) ([6]; HNG (S14G)/Dexa, vs Dexa only): larger than in the Dexa only treated group | size of resting and proliferating chondrocyte zone (R+P) ([6]; HNG alone 1 μg/mice, vs all other groups): appears to be larger
